# Test results published in patent US9376433B2, “(AZA-)isoquinolinone derivatives” (MERCK PATENT GMBH, priority 2012, dated 2016).
# Assays:
# Tankyrase-1 = target: T1, Tankyrase-1 (Homo sapiens, UniProt O95271); test: Tankyrase 1 autoparsylation assay (HTRF enzyme assay); format: biochemical; details: GST-tagged Tankyrase-1 (1023-1327 aa)
# T1 construct: GST-tagged Tankyrase-1 (1023-1327 aa)
# Description: (§1) Biochemical activity testing of Tankyrase 1 and 2: Autoparsylation assay
# (§2) The autoparsylation assay is run in two steps: the enzymatic reaction in which GST-tagged Tankyrase-1, resp Tankyrase-2 transferred biotinylated ADP-ribose to itself from biotinylated NAD as co-substrate and the detection reaction where a time resolved FRET between cryptate labelled anti-GST bound to the GST tag of the enzyme and Xlent® labelled-streptavidin bound the biotin-parsylation residue is analysed. The autoparsylation activity was detectable directly via the increase in HTRF signal.
# (§3) The autoparsylation assay is performed as 384-well HTRF® (Cisbio, Codolet, France) assay format in Greiner low volume nb 384-well microtiter plates and is used for high throughput screen. 250 nM GST-tagged Tankyrase-1 (1023-1327 aa), respectively about 250 nM GST-tagged Tankyrase-2 (873-1166 aa) and 5 μM bio-NAD (Biolog, Life science Inst., Bremen, Germany) as co-substrate are incubated in a total volume of 5 μl (50 mM HEPES, 4 mM Mg-chloride, 0.05% Pluronic F-68, 1.4 mM DTT, 0.5% DMSO, pH 7.7) in the absence or presence of the test compound (10 dilution concentrations) for 90 min at 30° C. The reaction is stopped by the addition of 1 μl 50 mM EDTA solution. 2 μl of the detection solution (1.6 μM SA-Xlent® (Cisbio, Codolet, France), 7.4 nM Anti-GST-K® (Eu-labelled anti-GST, Cisbio, Codolet, France) in 50 mM HEPES, 800 mM KF, 0.1% BSA, 20 mM EDTA, 0.1% CHAPS, pH 7.0) are added. After 1 h incubation at room temperature the HTRF is measured with an Envision multimode reader (Perkin Elmer LAS Germany GmbH) at excitation wavelength 340 nm (laser mode) and emission wavelengths 615 nm and 665 nm. The ratio of the emission signals is determined. The full value used is the inhibitor-free reaction. The pharmacological zero value used is XAV-939 (Tocris) in a final concentration of 5 μM. The inhibitory values (IC50) are determined using either the program Symyx Assay Explorer® or Condosseo® from GeneData.
# Tankyrase-2 = target: T2, Tankyrase-2 (Homo sapiens, UniProt Q9H2K2); test: Tankyrase 2 autoparsylation assay (HTRF enzyme assay); format: biochemical; details: GST-tagged Tankyrase-2 (873-1166 aa)
# T2 construct: GST-tagged Tankyrase-2 (873-1166 aa)
# T2 sequence (Q9H2K2 873-1166): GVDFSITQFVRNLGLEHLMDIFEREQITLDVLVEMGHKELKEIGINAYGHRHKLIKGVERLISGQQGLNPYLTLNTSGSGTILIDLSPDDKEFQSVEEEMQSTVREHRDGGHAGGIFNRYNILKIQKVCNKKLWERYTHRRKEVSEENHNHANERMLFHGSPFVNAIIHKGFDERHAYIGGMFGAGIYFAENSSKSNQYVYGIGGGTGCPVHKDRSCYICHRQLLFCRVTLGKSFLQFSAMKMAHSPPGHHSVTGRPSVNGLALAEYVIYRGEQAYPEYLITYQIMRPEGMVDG
# Description: as §1, §2, §3
# tankyrase 1/2 = test: Cellular inhibition of tankyrase: increase of Axin2 level in DLD1 cells (Luminex); format: cell-based; details: DLD1 colon carcinoma cells, 24 hours, read-out: EC50 tankyrase 1/2 (cell assay)
# Description: Measurement of Cellular Inhibition of Tankyrase
# Since Tankyrases have been described to modulate cellular level of Axin2 (Huang et al., 2009; Nature) the increase of Axin2 level is used as read-out for determination of cellular inhibition of Tankyrases in a Luminex based assay.
# Cells of the colon carcinoma cell line DLD1 are plated in 96 well plates with 1.5×10^4 cells per well. Next day, cells are treated with a serial dilution of test compound in seven steps as triplicates with a final DMSO concentration of 0.3%. After 24 hours, cells are lysed in lysis buffer (20 mM Tris/HCl pH 8.0, 150 mM NaCl, 1% NP40, 10% Glycerol) and lysates are cleared by centrifugation through a 96 well filter plate (0.65 μm). Axin2 protein is isolated from cell lysates by incubation with a monoclonal anti-Axin2 antibody (R&D Systems #MAB6078) that is bound to fluorescent carboxybeads. Then, bound Axin2 is specifically detected with a polyclonal anti-Axin2 antibody (Cell Signaling #2151) and an appropriate PE-fluorescent secondary antibody. The amount of isolated Axin2 protein is determined in a Luminex^200 machine (Luminex Corporation) according to the manufacturer's instruction by counting 100 events per well. Inhibition of Tankyrase by test compounds results in higher levels of Axin2 which directly correlates with an increase of detectable fluorescence. As controls cells are treated with solvent alone (neutral control) and with a Tankyrase reference inhibitor IWR-2 (3E-06 M) which refers as control for maximum increase of Axin2. For analysis, the obtained data are normalized against the untreated solvent control and fitted for determination of the EC50 values using the Assay Explorer software (Accelrys).
# TNKS1 = target: T3, TNKS1 (Homo sapiens, UniProt O95271); test: TNKS1 activity ELISA (autoparsylation assay); format: biochemical; details: GST-tagged Tnks-1 (1023-1327 aa), luminescence
# T3 construct: GST-tagged Tnks-1 (1023-1327 aa, prepared in-house); made in house
# T3 sequence (O95271 1023-1327): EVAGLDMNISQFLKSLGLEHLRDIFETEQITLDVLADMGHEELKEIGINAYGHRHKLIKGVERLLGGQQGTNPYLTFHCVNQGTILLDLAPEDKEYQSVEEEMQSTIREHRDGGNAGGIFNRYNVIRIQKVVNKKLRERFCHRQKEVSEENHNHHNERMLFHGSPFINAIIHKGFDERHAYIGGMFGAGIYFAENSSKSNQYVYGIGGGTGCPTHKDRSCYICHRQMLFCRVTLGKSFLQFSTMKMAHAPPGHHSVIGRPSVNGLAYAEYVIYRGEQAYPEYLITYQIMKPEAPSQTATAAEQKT
# Description: Description of the TNKS1 and TNKS2 ELISA Assay
# Biochemical activity testing of TNKS 1 and 2: activity ELISA (Autoparsylation assay)
# For analysis of autoparsylation activity of TNKS 1 and 2 an activity ELISA iss performed: In the first step GST tagged TNKS is captured on a Glutathione coated plate. Then the activity assay with biotinylated NAD is performed in the absence/presence of the compounds. During the enzymatic reaction GST tagged TNKS transfers biotinylated ADP-ribose to itself from biotinylated NAD as co-substrate. For the detection streptavidin-HRP conjugate is added that binds to the biotinylated TNKS and is thereby captured to the plates. The amount of biotinylated resp. autoparsylated TNKS is detected with a luminescence substrate for HRP. The level of the luminescence signal correlats directly with the amount of autoparsylated TNKS and therefore with activity of TNKS.
# The acitivity ELISA is performed in 384 well Glutathione coated microtiter plates (Express capture Glutathione coated plate, Biocat, Heidelberg, Germany). The plates are pre-equilibrated with PBS. Then the plates are incubated with 50 μl 20 ng/well GST-tagged Tnks-1 (1023-1327 aa, prepared in-house), respectively GST-tagged Tnks-2 (873-1166 aa, prepared in-house) in assay buffer (50 mM HEPES, 4 mM Mg-chloride, 0.05% Pluronic F-68, 2 mM DTT, pH 7.7) overnight at 4° C. The plates are washed 3 times with PBS-Tween-20. The wells are blocked by incubation at room temperature for 20 minutes with 50 μl blocking buffer (PBS, 0.05% Tween-20, 0.5% BSA). Afterwards the plates are washed 3 times with PBS-Tween-20. The enzymatic reaction is performed in 50 μl reaction solution (50 mM HEPES, 4 mM Mg-chloride, 0.05% Pluronic F-68, 1.4 mM DTT, 0.5% DMSO, pH 7.7) with10 μM bio-NAD (Biolog, Life science Inst., Bremen, Germany) as co-substrate in the absence or presence of the test compound (10 dilution concentrations) for 1 hour at 30° C. The reaction is stopped by 3 times washing with PBS-Tween-20. For the detection 50 μl of 20 ng/μl Streptavidin, HRP conjugate (MoBiTec, Göttingen, Germany) in PBS/0.05% Tween-20/0.01% BSA are added and the plates are incubated for 30 minutes at room temperature. After three times washing with PBS-Tween-20 50 μl of SuperSignal ELISA Femto Maximum sensitivity substrate solution (ThermoFisherScientific (Pierce), Bonn, Germany) are added. Following a 1 minute incubation at room temperature luminescence signals are measured with an Envision multimode reader (Perkin Elmer LAS Germany GmbH) at 700 nm. The full value used is the inhibitor-free reaction. The pharmacological zero value used is XAV-939 (Tocris) in a final concentration of 5 μM. The inhibitory values (IC50) are determined using either the program Symyx Assay Explorer® or Condosseo® from GeneData.
# DLD-1-cancer cells = details: DLD-1 cells; Huang et al., 2009, Nature; cited from earlier work
# T1 sequence (O95271 1023-1327): as above
smiles,measurement,setting,value
"Cc1ccc(-c2cc3c(C(F)(F)F)cccc3c(=O)[nH]2)cc1 [Compound A30, 3-(p-tolyl)-5-(trifluoromethyl)-2H-isoquinolin-1-one]",IC50,Tankyrase-1,300 to 3000 nM
same,IC50,Tankyrase-2,3000 to 50000 nM
"CC1(c2ccc(-c3cc4ccc(F)cc4c(=O)[nH]3)cc2)CCCO1 (stereo not drawn) [Compound A21, 7-fluoro-3-[4-(2-methyltetrahydrofuran-2-yl)phenyl]-2H-isoquinolin-1-one]",IC50,Tankyrase-1,< 300 nM
same,EC50,tankyrase 1/2,300 to 3000 nM
same,IC50,Tankyrase-2,300 to 3000 nM
"Cn1cc(-c2ccc(-c3cc4cnccc4c(=O)[nH]3)cc2)cn1 [Compound A19, 3-[4-(1-Methyl-1H-pyrazol-4-yl)-phenyl]-2H-[2,6]naphthyridin-1-one]",IC50,Tankyrase-1,300 to 3000 nM
same,IC50,Tankyrase-2,300 to 3000 nM
"COC(=O)c1ccc(-c2cc3ccc(F)cc3c(=O)[nH]2)cc1 [Compound A4, 4-(7-Fluoro-1-oxo-1,2-dihydro-isoquinolin-3-yl)-benzoic acid methyl ester]",IC50,Tankyrase-1,300 to 3000 nM
same,EC50,tankyrase 1/2,300 to 3000 nM
same,IC50,Tankyrase-2,300 to 3000 nM
"CC(C)(F)c1ccc(-c2cc3ccccc3c(=O)[nH]2)cc1 [Compound A13, 3-[4-(1-fluoro-1-methyl-ethyl)-phenyl]-2H-isoquinolin-1-one]",IC50,Tankyrase-1,< 300 nM
same,EC50,tankyrase 1/2,300 to 3000 nM
same,IC50,Tankyrase-2,300 to 3000 nM
"CC(C)(C)c1ccc(-c2cc3cnccc3c(=O)[nH]2)cc1 [Compound A1, 3-(4-tert-butyl-phenyl)-2H-[2,6]naphthyridin-1-one]",IC50,Tankyrase-1,< 300 nM
same,EC50,tankyrase 1/2,< 300 nM
same,IC50,Tankyrase-2,300 to 3000 nM
same,IC50,TNKS1,< 300 nM
"O=c1[nH]c(-c2ccc(CO)cc2)cc2ccccc12 [Compound A8, 3-(4-hydroxymethyl-phenyl)-2H-isoquinolin-1-one]",IC50,Tankyrase-1,< 300 nM
same,EC50,tankyrase 1/2,< 300 nM
same,IC50,Tankyrase-2,300 to 3000 nM
"Cn1cc(-c2ccc(-c3cc4ccc(Cl)cc4c(=O)[nH]3)cc2)cn1 [Compound A32, 7-chloro-3-[4-(1-methyl-1H-pyrazol-4-yl)-phenyl]-2H-isoquinolin-1-one]",IC50,Tankyrase-1,< 300 nM
same,EC50,tankyrase 1/2,300 to 3000 nM
same,IC50,Tankyrase-2,300 to 3000 nM
"Cc1ccc2cc(-c3ccc(C(C)(C)O)cc3)[nH]c(=O)c2c1 [Compound A7, 3-[4-(1-hydroxy-1-methyl-ethyl)-phenyl]-7-methyl-2H-isoquinolin-1-one]",IC50,Tankyrase-1,300 to 3000 nM
same,EC50,tankyrase 1/2,300 to 3000 nM
same,IC50,Tankyrase-2,300 to 3000 nM
Oc1nc(-c2ccc(C(F)(F)F)cc2)nc2c1CSCC2 [XAV939],growth of DLD-1-cancer cells,DLD-1-cancer cells,inhibits growth
"CC(C)(O)c1ccc(-c2cc3ccc(Cl)cc3c(=O)[nH]2)cc1 [Compound A25, 7-chloro-3-[4-(1-hydroxy-1-methyl-ethyl)phenyl]-2H-isoquinolin-1-one]",IC50,Tankyrase-1,< 300 nM
same,EC50,tankyrase 1/2,300 to 3000 nM
same,IC50,Tankyrase-2,300 to 3000 nM
"COC(=O)c1ccc(-c2cc3ccccc3c(=O)[nH]2)cc1 [Compound A2, 4-(1-oxo-1,2-dihydro-isoquinolin-3-yl)-benzoic acid methyl ester]",IC50,Tankyrase-1,< 300 nM
same,EC50,tankyrase 1/2,300 to 3000 nM
same,IC50,Tankyrase-2,< 300 nM
